From patent publication US8022057B2, “MAPK/ERK kinase inhibitors” (Takeda Pharmaceutical Company Limited, priority 2007, dated 2011) come the findings set out here.

One may read the IC50 as the point on the concentration scale where inhibition reaches its midpoint.

Molecules are shown by their SMILES. Where only a bound is given, the exact number is not on record here.

In this assay the target is T1, MEK1 (Homo sapiens, UniProt Q02750, DEL33-52/S218E/S222D).
T1 construct: 6-histidine tag (pFastbac leader) (N); made in house; host or cells: Spodoptera frugiperda Sf9 (baculovirus) for MEK1; E. coli for GST-ERK1
T1 sequence (Q02750 with tags, fused parts or gaps DEL33-52/S218E/S222D): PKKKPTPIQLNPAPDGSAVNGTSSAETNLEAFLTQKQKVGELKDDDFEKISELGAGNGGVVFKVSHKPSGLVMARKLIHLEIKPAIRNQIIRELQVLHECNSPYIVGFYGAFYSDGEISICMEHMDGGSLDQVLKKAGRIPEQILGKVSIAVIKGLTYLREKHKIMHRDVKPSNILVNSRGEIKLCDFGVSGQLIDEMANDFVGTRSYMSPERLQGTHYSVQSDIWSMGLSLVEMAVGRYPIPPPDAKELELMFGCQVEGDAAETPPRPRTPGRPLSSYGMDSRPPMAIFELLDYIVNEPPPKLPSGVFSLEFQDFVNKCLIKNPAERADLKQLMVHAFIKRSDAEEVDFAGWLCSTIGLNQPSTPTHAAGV
The assay can be described thus: MEK1 inhibition, fluorescence polarization (IMAP) assay with ERK1 and FI-Erktide. The note with it: 1 nM MEK1, 25 nM ERK1, 400 μM ATP, 500 nM FI-Erktide, 22 min at room temperature; read-out: IC50 of Exemplified Compounds Against MEK1. The class given is biochemical. As for the experimental part: The deletion from residues 32-51, and the two mutations, S218E and S222D, may be obtained by quick change PCR.
Reaction product is determined quantitatively by fluorescent polarization using progressive IMAP beads from Molecular Devices.
The reaction mixture may then be incubated at room temperature for 22 min, and quenched and developed by addition of 20 μl of 1:200 dilution of progressive IMAP beads (Molecular Devices) in 80% buffer A, 20% buffer B and 0.003% Tween 20. Fluorescence polarization of the resulting reaction mixtures may be measured after a 1 hour incubation at room temperature.
IC50 values may be calculated by non-linear curve fitting of the compound concentrations and fluorescence polarization signal to the standard IC50 equation.
In general terms: Polarisation of emitted light reports the rotation of a fluorescent probe.
`O=C(NOCCO)c1c(Nc2ccc(I)cc2F)c(Cl)c(=O)n2c1CCC2` [Example 10, 6-Chloro-7-(2-fluoro-4-iodophenylamino)-N-(2-hydroxyethoxy)-5-oxo-1,2,3,5-tetrahydroindolizine-8-carboxamide]: the IC50 was at most 100 nM. Consider `Cc1c(Nc2ccc(I)cc2F)c(C(=O)NOCCO)c2n(c1=O)CCC2` [Example 8, 7-(2-Fluoro-4-iodophenylamino)-N-(2-hydroxyethoxy)-6-methyl-5-oxo-1,2,3,5-tetrahydroindolizine-8-carboxamide], for which the IC50 was at most 100 nM. The same measure for `O=C(NOCCO)c1c(Nc2ccc(I)cc2F)c(F)c(=O)n2c1CCC2` [Example 4, 6-Fluoro-7-(2-fluoro-4-iodophenylamino)-N-(2-hydroxyethoxy)-5-oxo-1,2,3,5-tetrahydroindolizine-8-carboxamide]: at most 100 nM; for `O=C(NOCCO)c1c(Nc2ccc(I)cc2F)c(F)c(=O)n2c1CCCC2` [Example 7, 7-Fluoro-8-(2-fluoro-4-iodophenylamino)-N-(2-hydroxyethoxy)-6-oxo-2,3,4,6-tetrahydro-1H-quinolizine-9-carboxamide]: at most 100 nM.

On to `C#Cc1ccc(Nc2c(C(=O)NOCCO)c3n(c(=O)c2F)CCC3)c(F)c1` [Example 11, 7-(4-Ethynyl-2-fluorophenylamino)-6-fluoro-N-(2-hydroxyethoxy)-5-oxo-1,2,3,5-tetrahydroindolizine-8-carboxamide], for which the 50% inhibitory concentration (IC50) was at most 100 nM. Turning to `O=C(NOC(CO)CO)c1c(Nc2ccc(I)cc2F)c(F)c(=O)n2c1CCC2` [Example 3, N-(1,3-Dihydroxypropan-2-yloxy)-6-fluoro-7-(2-fluoro-4-iodophenylamino)-5-oxo-1,2,3,5-tetrahydroindolizine-8-carboxamide], the IC50 was at most 100 nM. In the case of `O=C(NOC[C@H](O)CO)c1c(Nc2ccc(I)cc2F)c(F)c(=O)n2c1CCC2` [Example 2, (R)—N-(2,3-Dihydroxypropoxy)-6-fluoro-7-(2-fluoro-4-iodophenylamino)-5-oxo-1,2,3,5-tetrahydroindolizine-8-carboxamide], the IC50 is at most 100 nM.

For `O=C(NOC[C@@H](O)CO)c1c(Nc2ccc(I)cc2F)c(F)c(=O)n2c1CCC2` [Example 5, (S)—N-(2,3-Dihydroxypropoxy)-6-fluoro-7-(2-fluoro-4-iodophenylamino)-5-oxo-1,2,3,5-tetrahydroindolizine-8-carboxamide], the IC50 is at most 100 nM. Turning to `O=C(O)c1c(Nc2ccc(I)cc2F)c(F)c(=O)n2c1CCC2` [Example 1, 6-Fluoro-7-(2-fluoro-4-iodophenylamino)-5-oxo-1,2,3,5-tetrahydroindolizine-8-carboxylic acid], the IC50 is at most 100 nM.
